Among the data in PubChem BioAssay (NCI) are GI50 and TGI values, retold here.

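96-well plates; 48 h exposure; 5 concentrations. Endpoints by linear interpolation between flanking doses. Not reached: highest tested concentration assigned. GI50 = concentration required for 50% inhibition of growth. TGI: total growth inhibition.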

One assay deals with A549 NSCLC. Put plainly: NCI tumour cell line growth inhibition, 48 h.
Consider `CCC[CH2][Sn]([CH2]CCC)([O]C(C)=O)[O]C(C)=O`, for which the GI50 is 3.65 µM and the TGI amounted to 15.3 µM.
`O=C(O)[C@@H]1C2CC([C@@H]1C(=O)O)[C@H](N1C(=O)CCC1=O)[C@@H]2Br` (stereo partly specified) had a TGI above 100 µM.
Compound `COC(=O)CCC(=O)N1Cc2cc(C)ccc2N(C(=O)CCC(=O)OC)Cc2cc(C)ccc21` registered a TGI above 100 µM.
Still for that read-out and setting: the result for `C=C1C(=O)O[C@H]2C[C@@H](C)[C@@H]3CC(=O)OC[C@@]3(C)CC12` (stereo partly specified) reads above 100 µM.
As for `CCOC(=O)c1c2c(n(CC(C)C)c1C)-c1nc[nH]c1C(=O)C2=O`, the GI50 is 14.9 µM and the TGI was 28.1 µM.
The compound `CS(=O)(=O)CC1=Nc2nnc(CCCCCCCc3nnc4n3C(=O)C(CS(C)(=O)=O)=N4)n2C1=O` displayed a TGI above 100 µM.
On to `COc1ccccc1[N-]C(C1=C([O-])c2ccccc2C1=O)c1ccccc1.COc1ccccc1[N-]C(C1=C([O-])c2ccccc2C1=O)c1ccccc1.[Cu+2]` (stereo unspecified), for which the GI50 was 4.63 µM and the TGI worked out at 52.9 µM.
For `COc1cc2c(cc1OC)-c1ccc3cc4c(cc3c1N(CCN1CCCC1)C2)OCO4`, the GI50 is 0.534 µM and the TGI came to 2.02 µM.
On to `O=C(NCCCCCCNC(=O)c1cccc2ccccc12)c1cccc2ccccc12`, for which the TGI was above 100 µM.
Take `COC12C=CC(CC1)c1c(O)ccc(O)c12` (stereo unspecified): the TGI is above 100 µM.
`CC1=C2CCCC2C/C(=N/Nc2ccc([N+](=O)[O-])cc2[N+](=O)[O-])CC1` (stereo unspecified) had a TGI above 100 µM.
For the compound `C=CCC(N[C@H](CO)C(C)C)c1cn(C(=O)OCC)c2ccccc12` (stereo partly specified), the GI50 is 24.9 µM and the TGI is 82 µM.
As to `CC1CC2C(=O)NC(=O)C2c2[nH]c3ccccc3c21` (stereo unspecified), the TGI was above 100 µM.
Take `CC12CCC(=O)C(O1)C1C(=O)c3cc4ccccc4cc3C(=O)C12` (stereo unspecified): the GI50 was 32.4 µM and the TGI was above 100 µM.
The like results for `CC1(C)CCC2(C(=O)OC3OC(CO)C(O)C(O)C3O)CC[C@]3(C)C(=CCC4C5(C)CC[C@H](OC6OC(C(=O)O)C(O)C(O)C6O)C(C)(C)C5CCC43C)C2C1` (stereo partly specified) were, in that order, 1.83 µM and 20.2 µM.
Regarding `Cc1ccc2c(c1)C1(C)OC(CC(N)C1O)O2` (stereo unspecified), the TGI is above 100 µM.
On the same count and under the same terms, the result for `COC(=O)[C@@H]1CSC(=S)N1C(=O)C[C@H]1CC=CC[C@H]1CC(=O)Sc1ccccc1` reads 40.1 µM.
Compound `CC1(Sc2ccccc2)CN(Cc2ccccc2)C1=O` (stereo unspecified) came in with a TGI above 100 µM.
For `C=C1C(=O)OC2CC3(C)C=CC(=O)C(=C)C3CC12` (stereo unspecified), the TGI turned out to be 20.4 µM.
Compound `CCOP(=O)(OCC)C1CCCCOC1=O` (stereo unspecified) returned a TGI above 100 µM.

The next assay concerns MCF7 breast. Put plainly: NCI tumour cell line growth inhibition, 48 h.
As to `CCOC(=O)c1c2c(n(CC(C)C)c1C)-c1nc[nH]c1C(=O)C2=O`, the GI50 was 16.3 µM and the TGI was found to be 29.9 µM.
In the case of `C=CCC(N[C@H](CO)C(C)C)c1cn(C(=O)OCC)c2ccccc12` (stereo partly specified), the GI50 is 35 µM and the TGI is above 100 µM.
As for `CC12CCC(=O)C(O1)C1C(=O)c3cc4ccccc4cc3C(=O)C12` (stereo unspecified), the GI50 was 12.6 µM and the TGI was 33 µM.
For `CC1(C)CCC2(C(=O)OC3OC(CO)C(O)C(O)C3O)CC[C@]3(C)C(=CCC4C5(C)CC[C@H](OC6OC(C(=O)O)C(O)C(O)C6O)C(C)(C)C5CCC43C)C2C1` (stereo partly specified), in that order: 1.6 µM and above 50 µM.

In a further assay the test system is A498 renal. Description: NCI tumour cell line growth inhibition, 48 h.
In the case of `CN(C)c1ccc2c(NCCCCCCNc3ccnc4cc(N(C)C)ccc34)ccnc2c1`, the TGI was found to be 95.8 µM.
In the case of `CC(=O)[O][Pb]([O]C(C)=O)([c]1ccccc1)[c]1ccccc1`, the GI50 is 23.4 µM and the TGI was above 100 µM.
Turning to `CN1CCc2c1nc(-c1ccccc1)c1c2N(C)CC1`, the TGI was above 100 µM.
The compound `O=C(O)[C@@H]1C2CC([C@@H]1C(=O)O)[C@H](N1C(=O)CCC1=O)[C@@H]2Br` (stereo partly specified) had a TGI above 100 µM.
Turning to `CCOC(=O)c1c2c(n(CC(C)C)c1C)-c1nc[nH]c1C(=O)C2=O`, the GI50 was 15.6 µM and the TGI stood at 29 µM.
Take `CS(=O)(=O)CC1=Nc2nnc(CCCCCCCc3nnc4n3C(=O)C(CS(C)(=O)=O)=N4)n2C1=O`: the TGI was above 100 µM.
Take `COc1ccccc1[N-]C(C1=C([O-])c2ccccc2C1=O)c1ccccc1.COc1ccccc1[N-]C(C1=C([O-])c2ccccc2C1=O)c1ccccc1.[Cu+2]` (stereo unspecified): the GI50 is 14.7 µM and the TGI is 53.7 µM.
As to `COc1cc2c(cc1OC)-c1ccc3cc4c(cc3c1N(CCN1CCCC1)C2)OCO4`, the GI50 was 1.57 µM and the TGI came out at 4.63 µM.
In turn, `O=C(NCCCCCCNC(=O)c1cccc2ccccc12)c1cccc2ccccc12` returned a TGI of 65.6 µM.
In turn, `COC12C=CC(CC1)c1c(O)ccc(O)c12` (stereo unspecified) gave a TGI above 100 µM.
On the same count and under the same terms, the result for `CC1=C2CCCC2C/C(=N/Nc2ccc([N+](=O)[O-])cc2[N+](=O)[O-])CC1` (stereo unspecified) reads above 100 µM.
On to `COc1cc2cc(Oc3ccc(NC(=O)Nc4ccc(Cl)c(C(F)(F)F)c4)cc3)c(C)nc2cc1OCCN1CCCCC1`, for which the GI50 is 1.24 µM and the TGI came out at 2.58 µM.
The compound `CC1(Sc2ccccc2)CN(Cc2ccccc2)C1=O` (stereo unspecified) returned a TGI above 100 µM.
Compound `C=C1C(=O)OC2CC3(C)C=CC(=O)C(=C)C3CC12` (stereo unspecified) returned a TGI of 19.5 µM.
Same read-out and setting: the result for `CCOP(=O)(OCC)C1CCCCOC1=O` (stereo unspecified) reads above 100 µM.

The next assay relates to PC-3 prostate. Put plainly: NCI tumour cell line growth inhibition, 48 h.
Take `O=C(O)[C@@H]1C2CC([C@@H]1C(=O)O)[C@H](N1C(=O)CCC1=O)[C@@H]2Br` (stereo partly specified): the TGI was above 100 µM.
For the compound `COc1cc2c(cc1OC)-c1ccc3cc4c(cc3c1N(CCN1CCCC1)C2)OCO4`, the GI50 was 0.303 µM and the TGI worked out at 1.85 µM.
The like results for `COc1cc2cc(Oc3ccc(NC(=O)Nc4ccc(Cl)c(C(F)(F)F)c4)cc3)c(C)nc2cc1OCCN1CCCCC1` were, in that order, 1.27 µM and 2.69 µM.
Take `C=CCC(N[C@H](CO)C(C)C)c1cn(C(=O)OCC)c2ccccc12` (stereo partly specified): the GI50 is 15.9 µM and the TGI amounted to 43.9 µM.
For `CC12CCC(=O)C(O1)C1C(=O)c3cc4ccccc4cc3C(=O)C12` (stereo unspecified), in that order: 16.8 µM and 43.4 µM.
In the case of `CC1(C)CCC2(C(=O)OC3OC(CO)C(O)C(O)C3O)CC[C@]3(C)C(=CCC4C5(C)CC[C@H](OC6OC(C(=O)O)C(O)C(O)C6O)C(C)(C)C5CCC43C)C2C1` (stereo partly specified), the GI50 is 1.26 µM and the TGI was determined as 3.47 µM.
